# Square brackets hold non-standard residues; d marks the D form. Ends that are not written are not given here. Peptide text beside a SMILES is read from it. * marks the point of attachment. Phe(4-CN) = N#Cc1ccc(C[C@H](N)C(=O)O)cc1; Palmitoyl = CCCCCCCCCCCCCCCC(=O)*; rhodamine = not defined here; Nle = CCCC[C@H](N)C(=O)O; Dab = NCC[C@H](N)C(=O)O
# Legend:
# MCF7 breast cancer cells = test: MTT assay of growth inhibition / cytotoxicity in MCF7 cells; format: cell-based, human; settings: for Cell growth, % of control: 5 μM, MTT assay 48 hours after exposure
# Procedure: Activity was determined by MTT assay 48 hours after exposure of the MCF7 cells to the test compounds.
# Peptides were constructed based on variations of the amino acid sequence of the second helix of STAT1 and STAT5a. ε-palmitoyl lysine was substituted for penetratin as a cell-penetrating motif Several residues of penetratin sequence were preserved in the lipopeptide derivatives, which served as a linking sequence. The peptides and peptidomimetics were tested for growth inhibitory and cytotoxic activity in MCF7 cells using an MTT assay as described in Example 2.
# Retro-inverso peptide analogues were prepared comprising variants of the sequence of helix 2 of STAT3. STAT3-Hel2A-2 (see Example 3) was used as a starting sequence, in which all but three residues of the original penetratin sequence was replaced with palmitic acid. The variants were produced by systematically truncating and substituting the base sequence. The compounds were used to treat MCF7 breast cancer cells. IC50 values were determined 48 hours after exposing the cells to the test compounds.
# STAT3 signaling = test: Luciferase reporter assay (Mercury JAK-STAT Pathway Profiling system, GAS or STAT3 elements) in MCF-7 cells; format: cell-based, human; set-up: concentration or dose not given beside the values; settings: luciferase reporter with GAS or STAT3 elements, basal expression, within one hour after treatment
# Procedure: Selected peptides were tested for inhibition of STAT3 signaling in breast cancer cell lines by luciferase reporter assay. The assay employed the Mercury JAK-STAT Pathway Profiling system (Clontech), which includes the enhancer elements GAS (interferon-γ activating sequence) or STAT3 (a modified GAS sequence) introduced as three tandem copies upstream of the TA promoter in a luciferase reporter vector. STAT3 helix 2 analogs reduced basal expression of the reporter construct containing the GAS, or STAT3 elements in MCF-7 cells within one hour after treatment.
# STAT3 = target: T1, STAT3 (Homo sapiens, UniProt P40763); test: STAT3 tyrosine phosphorylation and expression in cytokine-treated breast cancer cells; format: cell-based; settings: pretreatment 1 hour
# T1 construct: endogenous in cells; host or cells: MCF-7 and MDA-MB-231
# T1 sequence (P40763 whole entry): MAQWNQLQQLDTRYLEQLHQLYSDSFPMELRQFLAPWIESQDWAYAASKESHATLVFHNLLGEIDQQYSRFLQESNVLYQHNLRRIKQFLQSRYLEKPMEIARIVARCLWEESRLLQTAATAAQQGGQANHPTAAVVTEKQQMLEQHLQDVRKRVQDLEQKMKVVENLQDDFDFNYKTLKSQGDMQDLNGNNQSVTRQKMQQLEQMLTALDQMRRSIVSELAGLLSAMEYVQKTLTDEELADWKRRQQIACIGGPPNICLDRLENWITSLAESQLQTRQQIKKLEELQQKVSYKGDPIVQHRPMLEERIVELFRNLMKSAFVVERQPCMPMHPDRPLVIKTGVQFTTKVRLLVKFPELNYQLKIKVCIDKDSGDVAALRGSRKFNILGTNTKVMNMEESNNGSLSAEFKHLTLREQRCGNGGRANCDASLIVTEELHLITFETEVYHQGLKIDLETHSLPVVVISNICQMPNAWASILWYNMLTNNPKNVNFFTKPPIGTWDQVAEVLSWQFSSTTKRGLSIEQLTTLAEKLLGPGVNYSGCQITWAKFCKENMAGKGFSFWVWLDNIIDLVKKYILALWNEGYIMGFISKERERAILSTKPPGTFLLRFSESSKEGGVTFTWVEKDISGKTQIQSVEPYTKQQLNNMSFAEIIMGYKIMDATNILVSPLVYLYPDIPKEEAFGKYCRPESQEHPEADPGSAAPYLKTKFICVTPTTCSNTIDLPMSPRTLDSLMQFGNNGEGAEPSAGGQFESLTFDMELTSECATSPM
# Procedure: (§1) MCF-7 and MDA-MB-231 cells were treated with Leukemia Inhibitory Factor (LIF) to activate STAT3 and with Interferon gamma (IFN-γ) to activate STAT1 signaling. In MCF-7 cells, LIF induced selective STAT3 tyrosine phosphorylation and IFN-γ induced selective STAT1 tyrosine phosphorylation. In MDA-MB-231 cells, however, each cytokine induced both STAT3 and STAT1 tyrosine phosphorylation.
# [1] = system: STAT3-dependent transcription (APRE reporter); test: APRE luciferase reporter in MCF-7 cells activated by LIF; format: cell-based, human; settings: basal and LIF-stimulated
# Text: (§2) To evaluate effects of inhibitors on cytokine-activated transcription, luciferase reporter vectors APRE and ISRE were employed (Takeda et al., J. Endocrinol. 159, 323-330 (1998); Ivanova et al., J. Mol. Biol. 340, 641-653 (2004)). APRE was activated in MCF-7 cells by LIF.
# STAT1 = target: T2, STAT1 (Homo sapiens, UniProt P42224); test: STAT1 tyrosine phosphorylation and expression in cytokine-treated breast cancer cells; format: cell-based; settings: pretreatment 1 hour
# T2 construct: endogenous in cells; host or cells: MCF-7 and MDA-MB-231
# T2 sequence (P42224 1-750): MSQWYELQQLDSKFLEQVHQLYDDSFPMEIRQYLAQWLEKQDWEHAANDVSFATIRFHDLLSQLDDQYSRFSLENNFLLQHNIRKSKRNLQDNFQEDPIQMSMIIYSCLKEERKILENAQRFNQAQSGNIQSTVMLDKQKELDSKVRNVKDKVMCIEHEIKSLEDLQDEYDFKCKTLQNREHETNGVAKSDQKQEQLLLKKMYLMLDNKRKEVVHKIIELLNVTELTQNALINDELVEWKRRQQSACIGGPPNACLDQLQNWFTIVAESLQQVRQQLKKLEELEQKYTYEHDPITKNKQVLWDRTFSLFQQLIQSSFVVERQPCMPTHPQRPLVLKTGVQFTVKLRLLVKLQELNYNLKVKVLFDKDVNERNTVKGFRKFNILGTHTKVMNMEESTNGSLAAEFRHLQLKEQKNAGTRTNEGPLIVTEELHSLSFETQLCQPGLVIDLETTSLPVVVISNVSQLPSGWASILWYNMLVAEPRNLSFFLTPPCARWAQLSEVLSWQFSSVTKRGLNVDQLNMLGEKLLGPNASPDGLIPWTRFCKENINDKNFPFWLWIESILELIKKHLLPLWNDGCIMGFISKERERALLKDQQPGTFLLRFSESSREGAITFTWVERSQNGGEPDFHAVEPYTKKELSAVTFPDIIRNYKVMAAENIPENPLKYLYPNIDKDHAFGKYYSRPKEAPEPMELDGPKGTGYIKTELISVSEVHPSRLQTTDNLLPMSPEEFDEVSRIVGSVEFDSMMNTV
# Procedure: as §1
# [2] = system: STAT1-dependent transcription (ISRE reporter); test: ISRE luciferase reporter in MCF-7 cells activated by IFN-γ; format: cell-based, human; settings: IFN-γ-stimulated
# Text: as §2
# [3] = target: T3, STAT3 tagged with eGFP (eGFP-STAT3) (Homo sapiens, UniProt P40763); test: FRET in living cells expressing eGFP-STAT3; format: binding; settings: HEK293 cells stably expressing eGFP-STAT3, 5 μM, one hour
# T3 construct: expressed in transfected cells; host or cells: HEK293
# T3 sequence (P40763 whole entry): as the sequence (P40763 whole entry) above
# Procedure: Fluorescence Resonance Energy Transfer (FRET) method was used to determine whether STAT3-HEL2A-2 (see Example 3) interacts with STAT3 in living cells. HEK293 cells stably expressing STAT3 tagged with eGFP on its N-terminus (eGFP-STAT3) were treated for one hour with 5 μM of STAT3-HEL2A-2 labeled with rhodamine. An additional cysteine residue was positioned at the C-terminus of penetratin to facilitate labeling. Excitation of eGFP (donor) was facilitated using a 488-nm light source, and the emission spectrum was detected. In the absence of energy transfer between eGFP and rhodamine, excitation of eGFP would lead to an emission peak at 520-540 nm, whereas energy transfer from eGFP to an adjacent rhodamine fluorochrome acceptor would cause an emission in the 560-600 nm range. […] The photobleaching of rhodamine restored the fluorescence of eGFP.
# Cells expressing eGFP-STAT3, eGFP-STAT1, or eGFP were treated with rhodamine-labeled STAT3-HEL2A-2 (see Example 6). Excitation of eGFP was facilitated, and the emission spectrum detected, in accordance with the methods described in Example 6. FRET efficiency was calculated using equation 1-D0/D1, where D0 is fluorescence intensity of eGFP before rhodamine photobleaching and D1 is the intensity after rhodamine photobleaching.
# [4] = MCF-7 and MDA-MB-231 cells treated with LIF or IFN-γ
Compound,"Cell growth, % of control (MCF7 breast cancer cells) [%]","Activity, % of control (STAT3 signaling) [%]",other results
CCCCCCCCCCCCCCCC(=O)N[C@H](CCCCN)C(=O)N[C@H](Cc1ccc(O)cc1)C(=O)N[C@H](CC(C)C)C(=O)N[C@H](CCCCN)C(=O)N[C@H](Cc1c[nH]cn1)C(=O)N[C@H](CC(C)C)C(=O)N[C@H](CCC(N)=O)C(=O)N[C@H](CCC(=O)O)C(=O)N[C@H](CC(C)C)C(=O)N[C@H](Cc1ccc(O)cc1)C(=O)N[C@H](CCCNC(=N)N)C(=O)N[C@@H](C(=O)N[C@H](CC(=O)O)C(N)=O)[C@H](C)O [St3-H2a-2a-Pa17] (Palmitoyl-[dK][dY][dL][dK][dH][dL][dQ][dE][dL][dY][dR][dT][dD]-NH2; C-terminus assumed),–,–,"IC50 (MCF7 breast cancer cells; read-out: IC50 (concentration causing 50% growth inhibition), 48 hours after exposure, Table 8): 1.8 µM"
"Ac-ATRYLEQLHKLY (Ac-ATRYLEQLHKLY-penetratin; also: penetratin fused C-terminally) [Hel2A-5-Pen, penetratin fused to the C-terminus]",85 ± 5,–,–
"Ac-DTRYLEQLHALY (Ac-DTRYLEQLHALY-penetratin; also: penetratin fused C-terminally) [Hel2A-3-Pen, penetratin fused to the C-terminus]",93 ± 6,89 ± 9,–
"Ac-DTRYLEQLHELY (Ac-DTRYLEQLHELY-penetratin; also: penetratin fused C-terminally) [Hel2A-4-Pen, penetratin fused to the C-terminus]",91 ± 6,–,–
"Ac-DTRYLEQLHKLY (Ac-DTRYLEQLHKLY-penetratin; also: penetratin fused C-terminally) [Ac-Hel2A-2a-Pen, penetratin fused to the C-terminus]",45 ± 5,–,–
DSKFLEQVHKLY-penetratin [STAT1-Hel2A-2],–,–,Effect on expression level of STAT3 protein (STAT3; MCF-7 and MDA-MB-231 cells): did not change; Effect on tyrosine phosphorylation of STAT3 (STAT3; [4]): did not affect; Effect on APRE reporter expression [1]: inhibited both basal and stimulated expression; Effect on expression level of STAT1 protein (STAT1; MCF-7 and MDA-MB-231 cells): did not change; Effect on tyrosine phosphorylation of STAT1 (STAT1; [4]): did not affect; Effect on ISRE reporter activation [2]: prevented cytokine-stimulated reporter activation
"DTKYLEQLHKLYS (DTKYLEQLHKLYS-penetratin) [Hel2D-Pen, penetratin fused to the C-terminus]",42 ± 4,–,–
"DTRYLEQLHDabLY (DTRYLEQLH[Dab]LY; also: penetratin fused C-terminally) [Hel2I-Pen, penetratin fused to the C-terminus]",25 ± 4,53 ± 6,–
"DTRYLEQLHDabLYS (DTRYLEQLH[Dab]LYS; also: penetratin fused C-terminally) [Hel2F-Pen, penetratin fused to the C-terminus]",60 ± 5,–,–
"DTRYLEQLHKLCyPheS (DTRYLEQLHKL[Phe(4-CN)]S; also: penetratin fused C-terminally) [Hel2C-Pen, CyPhe is 4-cyano phenylalanine; penetratin fused to the C-terminus]",38 ± 4,–,–
"DTRYLEQLHKLY (DTRYLEQLHKLY-penetratin) [Hel2A-2a-Pen, penetratin fused to the C-terminus]",65 ± 5,–,–
"DTRYLEQLHKLYS (DTRYLEQLHKLYS-penetratin) [Hel2A-Pen, penetratin fused to the C-terminus]",44 ± 5,100 ± 9,–
"DTRYLQELHKLYS (DTRYLQELHKLYS-penetratin) [Hel2E-Pen, penetratin fused to the C-terminus]",46 ± 4,–,–
"LDTKYLEQLHDabLY (LDTKYLEQLH[Dab]LY; also: penetratin fused C-terminally) [Hel2K-Pen, penetratin fused to the C-terminus]",8 ± 2,–,–
"LDTRYLEQLHDabLY (LDTRYLEQLH[Dab]LY; also: penetratin fused C-terminally) [Hel2H-Pen, penetratin fused to the C-terminus]",45 ± 4,43 ± 4,–
"LDTRYLEQLHKLYS (LDTRYLEQLHKLYS-penetratin) [Hel2B-Pen, penetratin fused to the C-terminus]",82 ± 6,100 ± 9,–
LDTRYLEQLHQLYS (LDTRYLEQLHQLYS-penetratin) [Hel2-Pen],73 ± 5,56 ± 5,–
rhodamine-labeled STAT3-HEL2A-2: STAT3-HEL2A-2 labeled with rhodamine via an additional cysteine residue at the C-terminus of penetratin (LDTRYLEQLHKLYRQIKIWFPNRR[Nle]KWKKC(rhodamine); reading uncertain),–,–,Quenching of the normal fluorescence of eGFP [3]: 90%

# Source: patent publication US9540427B2, “Peptide-based stat inhibitor” (The United States of America, as represented by the …, priority 2007, dated 2017)
